Type in all cases: cell-based
For assay [1], the system named is Colo205-LUC-TCF/LEF M1 reporter cell line (Wnt pathway). Put plainly: Colo205-LUC-TCF/LEF M1 reporter gene (luciferase) inhibition. Particulars: 4 hours incubation, luciferase readout. From the text:
Colo205 cell line (Cell Bank of Chinese Academy of Sciences, Cat #TCHu102) was purchased from the Cell Bank of Chinese Academy of Sciences. After expansion and subculture, in the exponential growth phase of the cells, transfection with lipo3000 liposome transfection with TCF/LEF transcription factors Driven luciferase reporter plasmid (Promega). […] The plasmid carries a resistance gene for resistance screening. Transfection was carried out in 10 cm culture dishes using conventional complete medium without resistance. After 2 days, the medium with resistance was replaced, and the culture was continued. After that, the resistant medium was replaced every 2 days, and the suspended cells were discarded. The original medium was centrifuged to remove cells and debris and retained as an adaptive medium. When the cells covered the culture dish, the cells were digested, counted, and passaged in a 96-well plate, so that the average number of cells contained in each well was 1.5/well, and the adaptive medium was used for passage. The rest of the cells were frozen. After subculture, culture for 4 hours to allow the cells to adhere to the wall, and then observe the number of cells in each well under a microscope. Wells with only 1 cell per well were labeled as monoclonal wells. Afterwards, normal culture was performed, and the culture medium was replaced every 2 days, and observed. There are holes where the monoclonal cells continue to grow in the early stage, and they are labeled twice, and can be replaced with normal resistant medium. When a monoclonal well was overgrown with a 96-well plate, it is digested and passaged to a 24-well culture plate. After the 24-well plate is overgrown, it is passaged to a 96-well plate and a 6-well plate. The cells in a 96-well plate are at least 6 wells, of which 3 wells were added with known Wnt inhibitors, and the other 3 wells were not treated. After 24 hours, the cells in the 96-well plate were added with a fluorescence detection reagent to detect the fluorescence intensity. Cell lines with fluorescent expression when not treated and decreased fluorescent light after inhibition were selected and further cultured. The Colo205-LUC-TCF/LEF-M1 cell line is one of the cell lines screened above. Its growth curve, cell shape, and cell growth state are similar to those of the original Colo205 cells, and the ratio of the fluorescent signals of the inhibitor-treated and untreated cells is the largest among all cell lines, and the ratio can reach 4-5 times when inhibited at 4 hours, which was completely suitable for the screening of Wnt inhibitors in the later stage.
The Colo205-LUC-TCF/LEF M1 cell line is a reporter tool cell stably transfected with the pGL4.49-LUC2-TCF/LEF vector. The β-catenin Wnt pathway is continuously activated. After adding the inhibitor, the Wnt pathway is inhibited. The expression of firefly luciferase regulated by the[…] cis-element decreased, and after adding the detection substrate, the detected light signal decreased accordingly, so as to detect the inhibitory effect of the compound.
To a 96-well cell culture plate, add 100 uL of the compound with a maximum concentration of 20 uM to each well, and make a 3-fold serial dilution of the compound concentration. Then 10,000 colo205 cells stably transfected with the reporter gene and 100 uL medium were inoculated into each well, and corresponding positive and negative control wells were made at the same time. Put the cells in a 5% CO2 incubator and incubate at 37° C. for 4 hours. After 4 hours, remove the culture medium, add 100 uL of reagent (Promega) containing the corresponding firefly luciferase substrate to each well, and measure the activity of luciferase reporter gene. Luminescence intensity was read with SpectraMax in full wavelength mode. […]
In general terms: A reporter such as luciferase makes a cellular process visible.

For the next assay, the system named is DU4475. The assay can be described thus: Proliferation inhibition, Wnt mutant cell line DU4475. Particulars: Homo sapiens, DU-4475; DU4475, Wnt pathway-dependent, 96 hours; read-out: Antiproliferative IC50 DU4475. The source says: (§1) The cell lines used in the experiment are Colo205 and DU4475 cell lines whose Wnt pathway is continuously activated and whose proliferation is Wnt pathway-dependent; while the BELA and RKO cell lines, whose Wnt pathway is not activated under normal circumstances and the proliferation is independent of Wnt pathway, as control cell lines. It is Judged that the inhibitory effect of the compound of the present invention on Wnt-dependent proliferation is not caused by other non-specific toxicity.
(§2) Treat the Colo205, Du4475, HELA and RKO cell lines cultured in their respective mediums in the logarithmic growth phase, collect the cells and prepare a uniform cell suspension of known concentration, and then add it to the 96-well cell culture plate Cell suspension, so that each well contains 1000 cells. Put it into a 5% CO2 incubator and incubate at 37° C. for 20-24 h. On the second day, the fully dissolved, 3-fold serially diluted compound was added to each cell culture well, so that the final maximum concentration in the cell culture well was 20 uM, and the culture was continued for 96 hours. In this test, Promega's cell viability detection test is used for detection. The more the cells proliferate, the stronger the final signal intensity will be. The detection instrument is SpectraMax, full wavelength mode. The wells only added with DMSO were used as positive control wells, and the wells that were not inoculated with cells were used as negative control wells. […] The IC50 value of cell proliferation inhibition was used to evaluate the inhibitory effect of the compound on the Wnt pathway and the toxic effect on normal cells (Table 2).

Another assay has as its system Colo205. The assay can be described thus: Proliferation inhibition, Wnt mutant cell line Colo205. Conditions: Homo sapiens, COLO 205; Colo205, Wnt pathway-dependent, 96 hours; read-out: Antiproliferative IC50 Colo205.
Description: as §1, §2

For the next assay, the system named is RKO. The assay can be described thus: Proliferation inhibition, non-Wnt mutant control cell line RKO. Particulars: Homo sapiens, Wnt-independent control cell line, 96 hours, read-out: Antiproliferative IC50 RKO.
Description: as §1, §2

Structures are written as SMILES.

With `COC[C@H]1Cn2ccc3nc(NCc4ccc(OC5CCC(F)(F)CC5)nc4)nc(c32)N1C` [85 (W132)], the 50% inhibitory concentration (IC50) in assay [1] stood at 7 nM; in the assay on DU4475 it was 11.6 nM; in the assay on Colo205, 8.3 nM; in the assay with RKO, 5500 nM.

As for `O=C1[C@@H]2COCCN2c2nc(NCc3ccc(Oc4ccc(C(F)(F)F)nc4)nc3)nc3c2N1CCC3` [124 (W278), (S)-2-(((6-((6-(trifluoromethyl)pyridin-3-yl)oxo)pyridin-3-yl)methyl)amino)-5,6,8a,9, 11,12-Hexahydro-4H,8H-[1,4]oxazino[3,4-h]pyrido[3,2,1-de]pteridin-8-one], the IC50 in the assay on DU4475 was 51 nM; in the assay with Colo205 it was 152 nM; in the assay on RKO, over 10000 nM.

Consider `CC(C)[C@H]1C(=O)N2CCCc3nc(NCc4ccc(Oc5cnc(C(F)(F)F)nc5)nc4)nc(c32)N1C` [159 (W259)], for which the IC50 in assay [1] was 2 nM; in the assay on DU4475 it was under 0.5 nM; in the assay with Colo205, 4.6 nM; with RKO, over 10000 nM.

For the compound `COC[C@H]1C(=O)N2CCCc3nc(NCc4ccc(Oc5cnc(C(F)(F)F)nc5)nc4)nc(c32)N1C` [154 (W258)], the IC50 was 30 nM in assay [1], 30 nM with DU4475, 37 nM with Colo205 and over 10000 nM with RKO.

On to `CN1c2nc(NCc3ccc(Oc4cnc(C(F)(F)F)nc4)nc3)nc3c2N(CCC3)C(=O)[C@@H]1c1cccc(F)c1` [174 (W314)], for which the IC50 in the assay with DU4475 is 37 nM; in the assay with Colo205 it was 66 nM; in the assay with RKO it was over 10000 nM.

Take `C[C@H]1C(=O)N2CCCc3nc(NCc4ccc(OC5CCC(F)(F)CC5)nc4)nc(c32)N1C` [98 (W188)]: the IC50 in the assay with DU4475 is 31 nM; in the assay with Colo205, 31 nM; in the assay on RKO it was over 10000 nM.

For the compound `CC(C)[C@H]1C(=O)N2CCCc3nc(NCc4ccc(Cn5ccc(C(F)(F)F)n5)nc4)nc(c32)N1C` [148 (W250)], the IC50 in assay [1] was 31 nM; in the assay on DU4475, 13 nM; in the assay with Colo205, 27 nM; in the assay with RKO it was over 10000 nM.

As for `CN1c2nc(NCc3ccc(Oc4cnc(C(F)(F)F)nc4)nc3)nc3c2N(CCC3)C(=O)[C@@H]1C(C)(C)O` [145 (W331)], the IC50 was 53 nM in the assay with DU4475, 43 nM with Colo205 and over 10000 nM in the assay on RKO.

As for `COCCC1C(=O)N2CCCc3nc(NCc4ccc(Oc5ccc(C(F)(F)F)nc5)nc4)nc(c32)N1C` (stereo not drawn) [213 (W355)], the values for the 50% inhibitory concentration (IC50) (in assay [1]; in the assay on Colo205; with RKO) were 69 nM, 53 nM and over 10000 nM, respectively.

As to `CCOC[C@H]1C(=O)N2CCCc3nc(NCc4ccc(Oc5cnc(C(F)(F)F)nc5)nc4)nc(c32)N1C` [155 (W347)], the IC50 was 77 nM in assay [1], 88 nM with Colo205 and over 10000 nM with RKO.

As for `C[C@H]1C(=O)N2CCCc3nc(NCc4ccc(Cc5ccc(C(F)(F)F)cc5)nc4)nc(c32)N1C` [138 (W271), (S)-4,5-dimethyl-2-(((6-(4-(trifluoromethyl)benzyl)pyridin-3-yl)methyl)amino)-4,5,9, 10-tetrahydro-6H,8H-pyrido[3,2,1-de]pteridin-6-one], the IC50 is 25 nM in assay [1], 40 nM with DU4475, 48 nM in the assay on Colo205 and over 10000 nM in the assay with RKO.

In the case of `C[C@H](O)[C@@]1(C)C(=O)N2CCCc3nc(NCc4ccc(Oc5cnc(C(F)(F)F)nc5)nc4)nc(c32)N1C` [240 (W428)], the values for the IC50 (in assay [1]; in the assay on Colo205; in the assay on RKO) were 16.6 nM, 11.1 nM and over 10000 nM, respectively.

`CN1c2nc(NCc3ccc(Oc4ccc(C(F)(F)F)nc4)nc3)nc3c2N(CCC3)C(=O)[C@@H]1C(C)(C)O` [122 (W272), (S)-5-(2-hydroxypropan-2-yl)-4-methyl-2-(((6-((6-(trifluoromethyl)pyridin-3-yl)oxo)pyridine-3-yl)methyl)amino)-4,5,9,10-tetrahydro-6H,8H-pyrido[3,2,1-de]pteridin-6-one]: the IC50 in the assay on DU4475 was 58 nM; with Colo205 it was 87 nM; in the assay on RKO it was over 10000 nM.

For the compound `O=C1[C@@H]2CCCN2c2nc(NCc3ccc(Oc4cnc(C(F)(F)F)nc4)nc3)nc3c2N1CCC3` [157 (W262)], the IC50 was 24 nM in assay [1], 18 nM in the assay on DU4475, 31 nM with Colo205 and over 10000 nM in the assay on RKO.

With `[2H]C([2H])([2H])n1nc(C(F)(F)F)cc1Oc1ccc(CNc2nc3c4c(n2)N(C)[C@@H](CO)C(=O)N4CCC3)cn1` [241 (W431)], the values for the IC50 (in assay [1]; in the assay with Colo205; in the assay with RKO) were 9.3 nM, 11.5 nM and over 10000 nM, respectively.

Turning to `CN1c2nc(NCc3ccc(Oc4cc(C(F)(F)F)nn4C)nc3)nc3c2N(CCC3)C(=O)[C@]1(C)CO` [223 (W403)], the IC50 is 59 nM in assay [1], 35 nM in the assay with Colo205 and over 10000 nM in the assay with RKO.

For the compound `CN1c2nc(NCc3ccc(Oc4ccc(C(F)(F)F)nc4)nc3)nc3c2N(CCC3)C(=O)[C@@H]1C(F)(F)F` [185 (W310)], the IC50 in assay [1] is 69 nM; in the assay with DU4475, 99 nM; in the assay on Colo205 it was 63 nM; in the assay on RKO, over 10000 nM.

Consider `CO[C@H](C)[C@H]1C(=O)N2CCCc3nc(NCc4ccc(Oc5cnc(C(F)(F)F)nc5)nc4)nc(c32)N1C` [156 (W264)], for which the IC50 in assay [1] was 39 nM; in the assay on DU4475 it was 13 nM; in the assay with Colo205, 27 nM; in the assay with RKO it was over 10000 nM.

Regarding `CN1c2nc(NCc3ccc(Oc4ccc(C(F)(F)F)nc4)nc3)nc3c2N(CCC3)C(=O)[C@@H]1C1CCOCC1` [219 (W338)], the values for the half-inhibitory concentration (IC50) (in assay [1]; in the assay with Colo205; with RKO) were 31 nM, 10 nM and over 10000 nM, respectively.

Consider `CO[C@@H](C)[C@H]1C(=O)N2CCCc3nc(NCc4ccc(Oc5ccc(C(F)(F)F)nc5)nc4)nc(c32)N1C` [113 (W247), (S)-5-((S)-1-methoxyethyl)-4-methyl-2-(((6-((6-(trifluoromethyl)pyridin-3-yl)oxo)pyridin-3-yl)methyl)amino)-4,5,9,10-tetrahydro-6H,8H-pyrido[3,2,1-de]pteridin-6-one], for which the IC50 is 31 nM in assay [1], 64 nM with DU4475, 48 nM in the assay on Colo205 and over 10000 nM in the assay with RKO.

What is called IC50 is the midpoint of a concentration-inhibition curve.

For the origin of these results see US12622917B2, “High-activity Wnt pathway inhibitor compound” (ADLAI NORTYE BIOPHARMA CO., LTD., priority 2020, dated 2026).
